In ChEMBL document CHEMBL4837240 (J Med Chem, 2021):

How the values were obtained:
[1] = biological target: Platelet-derived growth factor receptor beta (Homo sapiens, UniProt P09619); test: Inhibition of PDGFRbeta (unknown origin)
[2] = biological target: Platelet-derived growth factor receptor alpha (Homo sapiens, UniProt P16234); test: Inhibition of PDGFRalpha (unknown origin)
Sequence of Platelet-derived growth factor receptor alpha (P16234 whole entry): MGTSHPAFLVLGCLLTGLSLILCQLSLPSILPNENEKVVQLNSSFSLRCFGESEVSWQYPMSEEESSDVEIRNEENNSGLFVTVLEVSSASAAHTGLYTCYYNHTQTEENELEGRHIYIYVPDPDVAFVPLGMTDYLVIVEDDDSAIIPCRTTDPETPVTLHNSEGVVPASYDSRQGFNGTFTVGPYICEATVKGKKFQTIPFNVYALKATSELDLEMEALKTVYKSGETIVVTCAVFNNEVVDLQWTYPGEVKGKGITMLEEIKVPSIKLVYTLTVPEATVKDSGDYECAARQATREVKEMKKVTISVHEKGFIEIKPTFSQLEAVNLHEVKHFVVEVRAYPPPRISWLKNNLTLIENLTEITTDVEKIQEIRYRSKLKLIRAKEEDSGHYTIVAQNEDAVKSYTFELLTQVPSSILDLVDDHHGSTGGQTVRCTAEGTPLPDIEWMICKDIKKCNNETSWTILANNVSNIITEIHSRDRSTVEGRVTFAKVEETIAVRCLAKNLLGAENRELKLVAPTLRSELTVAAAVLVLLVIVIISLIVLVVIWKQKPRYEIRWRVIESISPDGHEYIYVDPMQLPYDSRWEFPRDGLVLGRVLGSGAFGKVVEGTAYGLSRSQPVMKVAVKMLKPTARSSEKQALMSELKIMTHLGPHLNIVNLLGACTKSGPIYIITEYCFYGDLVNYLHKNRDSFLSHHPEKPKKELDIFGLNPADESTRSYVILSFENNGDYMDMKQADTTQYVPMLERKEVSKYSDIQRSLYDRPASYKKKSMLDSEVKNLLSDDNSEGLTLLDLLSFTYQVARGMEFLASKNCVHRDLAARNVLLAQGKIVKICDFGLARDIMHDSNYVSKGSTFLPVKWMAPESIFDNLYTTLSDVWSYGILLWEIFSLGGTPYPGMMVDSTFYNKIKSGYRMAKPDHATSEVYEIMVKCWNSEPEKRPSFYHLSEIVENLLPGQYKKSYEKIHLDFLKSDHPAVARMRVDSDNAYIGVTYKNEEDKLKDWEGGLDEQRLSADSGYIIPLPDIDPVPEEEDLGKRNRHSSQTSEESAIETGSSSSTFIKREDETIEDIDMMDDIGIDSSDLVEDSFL

Sequence of Platelet-derived growth factor receptor beta (P09619 whole entry): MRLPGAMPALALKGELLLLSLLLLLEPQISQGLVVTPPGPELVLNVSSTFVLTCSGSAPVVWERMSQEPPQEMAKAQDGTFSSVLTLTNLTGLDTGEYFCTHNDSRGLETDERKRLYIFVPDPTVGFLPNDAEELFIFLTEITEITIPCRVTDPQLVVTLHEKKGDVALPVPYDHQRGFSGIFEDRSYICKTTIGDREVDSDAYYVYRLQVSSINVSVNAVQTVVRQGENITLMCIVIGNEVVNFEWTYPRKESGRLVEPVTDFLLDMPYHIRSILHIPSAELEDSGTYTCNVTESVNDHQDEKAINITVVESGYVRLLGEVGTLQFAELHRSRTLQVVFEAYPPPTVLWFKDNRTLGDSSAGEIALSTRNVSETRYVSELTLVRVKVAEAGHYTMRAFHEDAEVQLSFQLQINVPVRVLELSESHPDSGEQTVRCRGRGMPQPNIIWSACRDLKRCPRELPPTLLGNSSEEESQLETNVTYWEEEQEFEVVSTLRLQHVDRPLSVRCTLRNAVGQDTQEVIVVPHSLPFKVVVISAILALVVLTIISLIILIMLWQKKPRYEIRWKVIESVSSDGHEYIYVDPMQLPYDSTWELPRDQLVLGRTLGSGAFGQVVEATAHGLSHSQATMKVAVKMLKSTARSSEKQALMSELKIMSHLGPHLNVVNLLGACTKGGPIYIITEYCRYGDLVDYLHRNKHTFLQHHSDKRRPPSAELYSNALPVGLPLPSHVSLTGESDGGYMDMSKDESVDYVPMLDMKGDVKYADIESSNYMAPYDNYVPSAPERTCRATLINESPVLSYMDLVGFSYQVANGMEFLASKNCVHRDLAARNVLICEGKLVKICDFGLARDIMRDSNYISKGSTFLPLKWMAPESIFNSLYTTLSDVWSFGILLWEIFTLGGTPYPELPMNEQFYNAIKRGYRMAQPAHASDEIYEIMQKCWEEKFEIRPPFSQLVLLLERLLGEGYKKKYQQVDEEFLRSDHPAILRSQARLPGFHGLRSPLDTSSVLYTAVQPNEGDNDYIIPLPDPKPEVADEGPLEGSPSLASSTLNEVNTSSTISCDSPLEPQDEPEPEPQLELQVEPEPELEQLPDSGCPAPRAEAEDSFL

IC50 [1]: 39 nM
IC50 [2]: 51 nM
SMILES: COc1cc2nccc(Oc3ccc(NC(=O)NC4CC4)c(Cl)c3)c2cc1C(N)=O [LENVATINIB]
